The record followed here is article PMC6933707, “Palmitoylethanolamide counteracts substance P-induced mast cell activation in vitro by stimulating diacylglycerol lipase activity” (Journal of Neuroinflammation, 2019).

Assay [1] relates to RBL-2H3 cells. The experiment in a line: Histamine release assay (ELISA). The class given is cell-based, rat. Here is the method:
(§1) RBL-2H3 cells were plated into 24-well culture dishes at a cell density of 2 × 10^5 cells per well, or into 6-well culture dishes at a cell density of 9 × 10^5 cells per well, for 1 day at 37 °C in 5% CO2 atmosphere. After 1 day, RBL-2H3 cells were stimulated with SP (10 μM) or vehicle (water) and incubated for 15 min at 37 °C in 5% CO2 atmosphere.
SP-stimulated RBL-2H3 cells (2 × 10^5 cells/well) were treated with PEA (10 μM) or vehicle (methanol) for 15 min at 37 °C in 5% CO2 atmosphere. SP-stimulated RBL-2H3 cells were also treated with a CB2 antagonist, AM630 (0.1 μM), in the presence and absence of PEA (10 μM), or JWH133 (0.1 μM) (a CB2 synthetic agonist), and incubated for the indicated time. SP-stimulated RBL-2H3 cells were also treated with 2-AG (0.1 and 1 μM), or co-treated with PEA (0.1 μM) and 2-AG (0.1 μM), and incubated for the indicated time. SP-stimulated RBL-2H3 cells were also co-treated with PEA (10 μM) and OMDM188 (10 μM) (a DAGL inhibitor), and incubated for the indicated time. After 15 min, the supernatants were collected and the amounts of secreted histamine were measured by using a histamine ELISA kit according to the manufacturer’s instructions (Abnova) and by using a reader GENios Pro (Tecan). Data were expressed as nanograms per milliliter of histamine.

The target of the next assay is human CB2 receptor (Homo sapiens, UniProt P34972). Description: cAMP Hunter functional activity assay at the CB2 receptors. It is filed as cell-based. Set-up: host or cells: CHO-K1. The settings on record: 2-AG alone, CHO-K1 cells overexpressing human CB2; read-out: IC50, reduction of NKH-477-induced cAMP levels. On the procedure:
The cAMP Hunter™ eXpress G protein-coupled receptor (GPCR) assay was performed in Chinese Hamster Ovary (CHO)-Kl cells overexpressing the human CB2 receptor. Gi-coupled cAMP modulation was measured following the manufacturer’s protocol (DiscoverX, Fremont, CA). CHO-K1 cells overexpressing the human CB2 receptor were plated into a 96-well plate (3× 10^4 cells/well) and incubated overnight at 37 °C in 5% CO2 atmosphere. The media were aspirated and replaced with 30 μl of assay buffer. Cells were incubated 30 min at 37 °C with 15 μl of 3× concentration-response solutions of 2-AG (0.01–50 μM), or PEA (10 μM), prepared in presence of cell assay buffer containing a 3× of 25 μM NKH-477 solution (a water-soluble analog of Forskolin) to stimulate adenylate cyclase and enhance basal cAMP levels. We also investigated the effect of PEA on 2-AG receptor activation by co-incubation. Therefore, cells were also incubated 30 min at 37 °C with 2-AG and PEA (10 μM) in the presence of NKH-477 to stimulate adenylate cyclase and enhance cAMP levels. […] Relative luminescence units (RLU) were measured by using a GloMax Multi Detection System (Promega Italia). […] The percentage of response was calculated by using the following formula: % RESPONSE = 100% × (1-(RLU of test compound-RLU of NKH-477 positive control)/(RLU of vehicle-RLU of NKH-477 positive control).

Assay [2] has as its system RBL-2H3 cells. The experiment in a line: Toluidine blue staining, percentage of degranulation. The class given is cell-based, rat. Here is the method: SP-stimulated RBL-2H3 cells [plated on poly-L-lysine (33 μg/ml) coated slides (Deckglaser, 21 × 26 mm) into 6-well culture dishes at a cell density of 9 × 10^5 cells per well] were treated and incubated as described above for histamine release assay. After 15 min, the cells were fixed with paraformaldehyde at 4% for 20 min and incubated for 3 min with toluidine blue at 0.01% in 3% acetic acid. Subsequently, a 5 min wash in distilled water and dehydration in increasing alcohols (90%, 100%) were performed. Cells were then clarified by treatment with Xylol for 5 min and finally dried slides were mounted with the DPX histogram upright. The cells were observed using a Leica DMI6000 digital microscope, acquired using the Leica DFC 340FX digital camera connected to the microscope and analyzed using the LAS AF 2.2.0 software. Degranulated RBL-2H3 cells were counted and the percentage of degranulation (based on the number of colorable cells) was calculated.

Assay [3] relates to RBL-2H3 cells. The description is as above. The class given is cell-based, rat. The note with it: compound alone 0.1 μM, in the absence of SP (data not shown).
Assay [4] deals with RBL-2H3 cells. The experiment in a line: LC-APCI-MS measurement of endogenous AEA, 2-AG and PEA levels. The note with it: for decrease of endogenous levels of 2-AG: OMDM188 10 μM in the presence of PEA 10 μM. The class given is cell-based, rat. Here is the method:
RBL-2H3 cells (9 × 10^5 cells/well) were stimulated with SP (10 μM) and treated with PEA (10 μM) in the presence and absence of OMDM188 (10 μM), for 15 min at 37 °C in 5% CO2 atmosphere. After 15 min, cells and supernatants were collected and homogenized in a solution of CHCl3/CH3OH/Tris-HCl 50 mM pH 7.4 (2:1:1, v/v) containing 10 pmol of [^2H]8-AEA, [^2H]5-2-AG and [^2H]4-PEA as internal standards. The lipid-containing organic phase was dried down, weighed and pre-purified by open-bed chromatography on silica gel. Fractions obtained by eluting the column with a solution of CHCl3/CH3OH (90:10 by vol.) were analyzed by Liquid Chromatography-Atmospheric Pressure Chemical Ionization-Mass Spectrometry (LC-APCI-MS) using a Shimadzu (Shimadzu, Kyoto, Japan) HPLC apparatus (LC-10ADVP) coupled to a Shimadzu (LCMS-2020) quadrupole MS via a Shimadzu APCI interface. LC-APCI-MS analyses of 2-AG and PEA were carried out in the selected ion monitoring mode, using m/z values of 356 and 348 (molecular ions + 1 for deuterated and undeuterated AEA), 384.35 and 379.35 (molecular ions + 1 for deuterated and undeuterated 2-AG), and 304 and 300 (molecular ions + 1 for deuterated and undeuterated PEA). AEA, 2-AG and PEA levels were calculated on the basis of their area ratio with the internal deuterated standard signal areas, and their amounts (pmol) were normalized per mg of lipid extract.

For assay [5], the system named is RBL-2H3 cells. The experiment in a line: β-Hexosaminidase release assay. The class given is cell-based, rat. The settings on record: substance alone 10 μM, 15 min, vs vehicle-treated cells. On the procedure: as §1
SP-stimulated RBL-2H3 cells (2 × 10^5 cells/well) were treated with PEA (0.1, 0.5, 1, and 10 μM) or vehicle (methanol, max 0.1%) for 15 min at 37 °C in 5% CO2 atmosphere. After 15 min, the supernatants (15 μl) were transferred to 96-well plates and incubated with 60 μl of substrate (1 mM p-nitrophenyl-N-acetyl-β-D-glucosaminide in citrate 0.05 M, pH 4.5) for 1 h at 37 °C. To determine the total amount of released β-hexosaminidase, the cells were lysed with 0.1% Triton X-100 and incubated with substrate using the same procedure as for the determination of the activity in the supernatants. The reaction was stopped by adding 150 μl of 0.1 M sodium bicarbonate buffer (pH 10.0), and the reaction product was monitored by measuring the optical density (OD) at 405 nm by using a reader GENios Pro (Tecan). The results were expressed as % of the total β-hexosaminidase content of the cells determined by cell lysis with 0.1% Triton X-100, and calculated by using the following formula: % degranulation = [ODsupernatant/(ODsupernatant + ODtriton x−100)] × 100.

In assay [6] the test system is RBL-2H3 cells. Description: Quantitative real-time PCR of PEA/2-AG receptors and metabolic enzymes. The class given is cell-based, rat. The note with it: cells stimulated 15 min with SP 10 μM or PEA 10 μM or both, vs unstimulated. The text has this:
The mRNA expression of PEA target genes (Cnr1, Cnr2, Trpv1, Ppara, and Gpr55), as well as PEA and 2-AG biosynthetic (N-acyl phosphatidylethanolamine-specific phospholipase D, Napepld, Dagla and Daglb) and catabolic enzyme genes (fatty acid amide hydrolase, Faah; N-acylethanolamine-hydrolyzing acid amidase, Naaa; and monoacylglycerol lipase, Mgl), was studied by comparison of transcriptional expression in unstimulated RBL-2H3 cells (plated on 100 mm diameter Petri dishes) vs. the expression of these targets and enzymes in RBL-2H3 cells treated with PEA (10 μM), or stimulated with SP (10 μM) in the presence and absence of PEA (10 μM), for 15 min at 37 °C in 5% CO2 atmosphere. Total RNA was purified, quantified and reverse transcribed as previously reported. For each target, all mRNA sequences were aligned and common primers were designed (Table 1). Quantitative real-time PCR was performed by an iCycler-iQ5 in a 20 μl reaction mixture using 20 ng of cDNA. Assays were performed in quadruplicate (maximum ΔCt of replicate samples < 0.5). Optimized primers for SYBR-green analysis and optimum annealing temperatures were designed by the Allele-Id software version 7.0 (Biosoft International) and were synthesized (HPLC-purification grade) by MWG-Biotech. […] Results were expressed as fold expression compared with a reference condition (2^^−∆∆ct formula).

Where [7] appears, read: SP (10 μM)-stimulated cells, compound 0.1 μM, 15 min, vs SP + vehicle.
Where [8] appears, read: SP (10 μM)-stimulated cells, compound 1 μM, 15 min, vs SP + vehicle.
Where [9] appears, read: compound alone 0.1 μM, in the absence of SP (data not shown).
The mark [10] stands for this setting: SP-stimulated cells treated with OMDM188 10 μM in the presence of PEA 10 μM, vs SP + vehicle.

Sequence of human CB2 receptor (P34972 whole entry): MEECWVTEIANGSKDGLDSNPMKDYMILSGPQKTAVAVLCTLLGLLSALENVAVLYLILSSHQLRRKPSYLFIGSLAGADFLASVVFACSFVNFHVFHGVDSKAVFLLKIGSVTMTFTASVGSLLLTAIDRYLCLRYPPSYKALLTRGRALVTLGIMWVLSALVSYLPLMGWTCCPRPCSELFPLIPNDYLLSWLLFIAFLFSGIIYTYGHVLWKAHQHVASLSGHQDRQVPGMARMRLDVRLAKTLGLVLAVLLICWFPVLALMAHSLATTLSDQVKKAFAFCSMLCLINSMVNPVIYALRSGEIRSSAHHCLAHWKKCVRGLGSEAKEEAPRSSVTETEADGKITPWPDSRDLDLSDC

As for `CCCCC/C=C\C/C=C\C/C=C\C/C=C\CCCC(=O)OC(CO)CO` [2-AG, 2-arachidonoylglycerol], the histamine release entry in the assay on RBL-2H3 cells [1] (setting [7]) is listed as “comparable”; in the assay with RBL-2H3 cells [1] (setting [8]), “able to reduce”. In addition, the 50% inhibitory concentration (IC50) on human CB2 receptor was determined as 590 ± 160 nM. For the same molecule, the “number of degranulated cells” value in the assay with RBL-2H3 cells [2] (setting [7]) is recorded as “comparable”. For the same molecule, in the assay on RBL-2H3 cells [2] (setting [8]), the degranulation entry is listed as “able to reduce”.

For `COc1ccc(C(=O)c2c(C)n(CCN3CCOCC3)c3cc(I)ccc23)cc1` [AM630], the histamine release entry in the assay with RBL-2H3 cells [1] (setting [7]) is listed as “comparable”; with RBL-2H3 cells [1] (setting [9]) it was “No effect”. Besides, in the assay on RBL-2H3 cells [2] (setting [7]), the “number of degranulated cells” value is “comparable”.

Consider `CCCC(C)(C)c1ccc2c(c1)OC(C)(C)[C@@H]1CC=C(C)C[C@@H]21` [JWH133], for which the degranulation result in the assay on RBL-2H3 cells [3] is reported as “no effect”. In addition, the histamine release entry is listed as “inhibited the release of histamine” in the assay with RBL-2H3 cells [1] (setting [7]); “comparable” in the assay with RBL-2H3 cells [1] (SP-stimulated cells co-treated with JWH133 0.1 μM and AM630 0.1 μM, vs SP + vehicle); “No effect” with RBL-2H3 cells [1] (setting [9]). For the same molecule, the “number of degranulated cells” value in the assay on RBL-2H3 cells [2] (setting [7]) is “reduced the number of SP-degranulated RBL-2H3 cells”; in the assay on RBL-2H3 cells [2] (SP-stimulated cells co-treated with JWH133 0.1 μM and AM630 0.1 μM, vs SP + vehicle or SP + AM630) it was “comparable”.

As for `CCCCCCCCCCC[C@@H](C[C@@H]1OC(=O)[C@H]1CCCCCC)OC(=O)[C@@H](NC=O)[C@@H](C)CC` [OMDM188], the histamine release entry in the assay with RBL-2H3 cells [1] (setting [10]) was “comparable”. For the same molecule, the “decrease of endogenous levels of 2-AG” value stood at 2.5 fold in the assay on RBL-2H3 cells [4] (SP-stimulated cells, compared to SP + PEA only) and 2.4 fold in the assay with RBL-2H3 cells [4] (unstimulated cells, compared to PEA 10 μM alone). Also, the “number of degranulated cells” value in the assay with RBL-2H3 cells [2] (setting [10]) is “comparable”.

For substance P [SP], in the assay on RBL-2H3 cells [1] (substance alone 10 μM, 15 min, vs vehicle-treated cells), the histamine release entry is “significantly released”. Besides, the β-hexosaminidase release result in the assay on RBL-2H3 cells [5] is recorded as “significantly released”. Also, in the assay on RBL-2H3 cells [4] (SP 10 μM for 15 min, vs vehicle), the “endogenous levels of AEA, 2-AG, and PEA” value was “did not change”. Further, the “mRNA expression of Cnr2, Napepld, Naaa, Daglb, Faah and Mgl” value with RBL-2H3 cells [6] is listed as “no statistically significant change”. Moreover, the “number of degranulated cells” value in the assay with RBL-2H3 cells [2] (substance alone 10 μM, 15 min, vs vehicle) was “increased the number of degranulated RBL-2H3 cells”.
